“And” between values parts separate entries of the source, which are not always exact repeats. Identical values can stand only once. Like-named read-outs stand apart in the source and are kept apart here.
What was measured:
[1] = target: BChE (EC 3.1.1.8, equine serum) (Equus caballus, UniProt P81908); assay: In vitro ChE activity assay (modified Ellman), BChE; type: biochemical; conditions: for inhibition at 500 µM / inhibition at 50 µM: read-out: BChE % Inhibition
[2] = tested on: LPS-stimulated TNFα production in PBMCs; assay: LPS-stimulated TNFα production in PBMCs (ELISA); type: cell-based; conditions: Homo sapiens, PBMC, read-out: IC50, inhibition of LPS-stimulated TNFα production
Method: The effect of compounds on lipopolysaccharide (LPS)-stimulated tumor necrosis factor alpha (TNFα) production was evaluated as described previously. In short, peripheral blood mononuclear cells (PBMCs) were isolated from buffy coats obtained from healthy adult volunteers and resuspended in RPMI1640 medium (Capricorn Scientific, Ebsdorfergrund, Germany) supplemented with 10% heat-inactivated FBS (Biowest, Bradenton, FL, USA), 1% GlutaMAX (Gibco, Waltham, MA, USA), and 1% antibiotic–antimycotic (Gibco). Then, 2 × 10^5 PBMCs were seeded per well of a 96-well plate. […]
TNFα concentration in supernatants was measured by ELISA using antibodies and recombinant human TNFα protein (standard) from R&D Systems. […] Finally, after the plates were incubated with streptavidin-HRP (Invitrogen, Waltham, MA, USA), chemiluminescence ELISA Substrate (Roche, Basel, Switzerland) was added to the wells, and luminescence was measured using an EnVision 2105 multilabel reader (Revvity, Waltham, MA, USA). Measured luminescence was used to calculate concentrations of TNFα in the supernatants by interpolation from the standard curve. Percentages of inhibition were calculated from obtained cytokine concentrations, and IC50 values were determined using GraphPad Prism v9 software with a nonlinear regression curve fit (four parameters with variable slope).

[3] = at maximal concentration tested
[4] = at maximal concentration tested, 50 μM

BChE (EC 3.1.1.8, equine serum), sequence (P81908 whole entry): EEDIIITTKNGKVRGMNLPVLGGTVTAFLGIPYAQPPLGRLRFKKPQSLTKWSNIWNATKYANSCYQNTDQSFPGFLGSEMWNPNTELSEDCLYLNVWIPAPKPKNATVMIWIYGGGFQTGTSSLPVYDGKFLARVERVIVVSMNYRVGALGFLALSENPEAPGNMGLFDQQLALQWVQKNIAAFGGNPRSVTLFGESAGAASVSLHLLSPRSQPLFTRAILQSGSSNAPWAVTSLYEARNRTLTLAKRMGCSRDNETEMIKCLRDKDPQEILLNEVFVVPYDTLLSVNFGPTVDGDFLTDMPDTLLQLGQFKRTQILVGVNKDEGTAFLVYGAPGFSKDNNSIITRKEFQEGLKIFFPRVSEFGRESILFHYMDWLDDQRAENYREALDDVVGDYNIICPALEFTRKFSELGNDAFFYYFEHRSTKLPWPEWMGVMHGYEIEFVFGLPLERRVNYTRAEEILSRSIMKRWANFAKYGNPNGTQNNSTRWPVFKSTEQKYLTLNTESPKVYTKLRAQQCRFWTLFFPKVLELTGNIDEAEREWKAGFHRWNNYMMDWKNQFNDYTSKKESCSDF

| Structure (SMILES) | IC50 ([1]; read-out: BChE IC50) | IC50 ([1]; BChE IC50) | further results |
| --- | --- | --- | --- |
| CNC(=O)Oc1ccccc1/C=C/c1cccs1 [Compound 1, (E)-2-(2-(thiophen-2-yl)vinyl)phenyl methylcarbamate] | 0.5 µM |  | inhibition at 10 µM [1, 3]: 84.4 ± 1.18% |
| CNC(=O)Oc1ccc(F)cc1/C=C/c1cccs1 [Compound 2, (E)-4-fluoro-2-(2-(thiophen-2-yl)vinyl)phenyl methylcarbamate] | 3.74 µM |  | inhibition at 100 µM [1, 3]: 84.7 ± 3.2% |
| CNC(=O)Oc1ccc(OC)cc1/C=C/c1cccs1 [Compound 3, (E)-4-methoxy-2-(2-(thiophen-2-yl)vinyl)phenyl methylcarbamate] | 150 µM |  | inhibition at 500 µM ([1]; at maximal concentration tested, 500 μM): 82.2 ± 2% |
| CNC(=O)Oc1ccc(C)cc1/C=C/c1cccs1 [Compound 4, (E)-4-methyl-2-(2-(thiophen-2-yl)vinyl)phenyl methylcarbamate] |  | 1.1 µM and 0.913 µM | inhibition at 10 µM [1, 3]: 85.4 ± 2.29% |
| CNC(=O)Oc1ccccc1/C=C/c1ccc(C)s1 [Compound 5, (E)-2-(2-(5-methylthiophen-2-yl)vinyl)phenyl methylcarbamate] | 1.1 µM | 0.913 µM | inhibition at 5 µM ([1]; at maximal concentration tested, 5 μM): 74.8 ± 2.36% |
| CNC(=O)Oc1ccc(F)cc1/C=C/c1ccc(C)s1 [Compound 6, (E)-4-fluoro-2-(2-(5-methylthiophen-2-yl)vinyl)phenyl methylcarbamate] |  | 14.1 µM | inhibition at 50 µM [1]: 74 ± 3.2% |
| CNC(=O)Oc1ccc(Cl)cc1/C=C/c1ccc(C)s1 [Compound 7, (E)-4-chloro-2-(2-(5-methylthiophen-2-yl)vinyl)phenyl methylcarbamate] | 30.4 µM |  | inhibition at 100 µM [1, 3]: 69.8 ± 1.15% |
| CNC(=O)Oc1ccc(Cl)cc1C=Cc1ncc(C)s1 [Compound 8, (E) and (Z)-4-chloro-2-(2-(5-methylthiazol-2-yl)vinyl)phenyl methylcarbamate] |  | 59.1 µM | inhibition at 500 µM [1]: 87.21 ± 0.47% |
| CCN(C)C(=O)Oc1ccccc1/C=C/c1cccs1 [Compound 9, (E)-2-(2-(thiophen-2-yl)vinyl)phenyl ethyl(methyl)carbamate] | 0.583 µM |  | inhibition at 10 µM [1, 3]: 83.9 ± 1.77% |
| CCN(C)C(=O)Oc1ccc(F)cc1/C=C/c1cccs1 [Compound 10, (E)-4-fluoro-2-(2-(thiophen-2-yl)vinyl)phenyl ethyl(methyl)carbamate] | 3.08 µM |  | inhibition at 27 µM ([1]; at maximal concentration tested, 27 μM): 83.5 ± 1.49% |
| CCN(C)C(=O)Oc1ccc(C)cc1/C=C/c1cccs1 [Compound 11, (E)-4-methyl-2-(2-(thiophen-2-yl)vinyl)phenyl ethyl(methyl)carbamate] | 1.54 µM |  | inhibition at 10 µM [1, 3]: 82.8 ± 1.57% |
| CCN(C)C(=O)Oc1cccc(/C=C/c2cccs2)c1 [Compound 12, (E)-3-(2-(thiophen-2-yl)vinyl)phenyl ethyl(methyl)carbamate] | 1.07 µM | 1.5 µM | inhibition at 50 µM [1, 4]: 83.2 ± 0.84% |
| CCN(C)C(=O)Oc1cc(OC)ccc1/C=C/c1cccs1 [Compound 13, (E)-5-methoxy-2-(2-(thiophen-2-yl)vinyl)phenyl ethyl(methyl)carbamate] | 1.88 µM |  | inhibition at 25 µM [1, 3]: 84.4 ± 2.29% |
| CCN(C)C(=O)Oc1ccccc1/C=C/c1ccc(C)s1 [Compound 14, (E)-2-(2-(5-methylthiophen-2-yl)vinyl)phenyl ethyl(methyl)carbamate] | 90 µM | 85.1 µM | inhibition at 250 µM ([1]; at maximal concentration tested, 250 μM): 70 ± 0.8% |
| O=C(Oc1ccccc1/C=C/c1cccs1)N1CCOCC1 [Compound 16, (E)-2-(2-(thiophen-2-yl)vinyl)phenyl morpholine-4-carboxylate] | 0.0265 µM |  | inhibition at 1 µM ([1]; at maximal concentration tested, 1 μM): 84.25 ± 0.82%; IC50 ([2]; average, PBMCs from two donors): 31.6 µM |
| O=C(Oc1ccc(F)cc1/C=C/c1cccs1)N1CCOCC1 [Compound 17, (E)-4-fluoro-2-(2-(thiophen-2-yl)vinyl)phenyl morpholine-4-carboxylate] | 0.645 µM |  | inhibition at 25 µM [1, 3]: 82.3 ± 2.44% |
| Cc1ccc(OC(=O)N2CCOCC2)c(/C=C/c2cccs2)c1 [Compound 18, (E)-4-methyl-2-(2-(thiophen-2-yl)vinyl)phenyl morpholine-4-carboxylate] | 0.43 µM |  | inhibition at 25 µM [1, 3]: 87.5 ± 1.31% |
| O=C(Oc1cccc(/C=C/c2cccs2)c1)N1CCOCC1 [Compound 19, (E)-3-(2-(thiophen-2-yl)vinyl)phenyl morpholine-4-carboxylate] | 2.04 µM |  | inhibition at 50 µM [1, 4]: 79.7 ± 2.51% |
| C[C@@H]1C[C@H]2[C@@H]3CCC4=CC(=O)C=C[C@]4(C)[C@@]3(F)[C@@H](O)C[C@]2(C)[C@@]1(O)C(=O)CO [Dexamethasone, reference compound] |  |  | IC50 ([2]; PBMCs, reference compound): 0.0035 µM |

Source: PMC12191008, “Heterostilbene Carbamates with Selective and Remarkable Butyrylcholinesterase Inhibition: Computational Study and Physico-Chemical Properties” (Biomolecules, 2025)
